How the values were obtained:
hepatic lipase = assay: Post-heparin hepatic lipase activity in WHHL rabbits; format: in vivo, rabbit; conditions: end of treatment period
Protocol: Blood was drawn from rabbits after a 12-hour fast into tubes containing EDTA at the beginning of the study, every two weeks during treatment with the atherogenic diet, and at the end of the study. The total cholesterol and triglyceride concentrations (Sigma) as well as unesterified cholesterol and phospholipids (Wako Chemicals, Richmond, Va.) were determined on plasma samples using enzymatic methods on a Hitachi 911 Autoanalyzer (Boehringer Mannheim). Post-heparin hepatic lipase activity was determined as described (Iverius P H, Brunzell J D. Am J Physiol 1985; 249: E107-E114).

MMP-2/MMP-9 = assay: Net MMP activity in aortic extracts, synthetic colorimetric substrate; format: in vivo, rabbit; conditions: aortic arch extracts, WHHL rabbits treated with PPS; P<0.05
Protocol: (§1) MMP activity in aortic extracts and conditioned media from monocytes was assessed, as previously described (Jacot T A, et al., Lab Invest. 1996; 75:791-79). Briefly, aortic segments were homogenized and extracted in RIPA buffer (25 mM Tris, pH 7.4, 150 mM KCl, 5 mM EDTA, 1% Nonidet P-40, 0.5% sodium deoxycholate, and 0.1% SDS). Insoluble material was precipitated by centrifugation, and soluble extracts were collected and stored at −20° C. for further analysis. For in vitro experiments, cell supernatants were centrifuged to remove cellular debris, and diluted appropriately to normalize for cell number. Aortic extracts and conditioned media were then mixed with sample buffer (1% SDS, 0.08 M Tris pH 6.8, 4% glycerol, and 0.006% bromophenol blue), and loaded onto a 10% gelatin polyacrylamide gel, and processed as described (Jacot T A, et al., Lab Invest. 1996; 75:791-79). For reverse zymography, samples were loaded onto a 15% gelatin polyacrylamide gel containing 0.5% porcine gelatin and 6 μg recombinant gelatinase A, and processed as described (Elliot S J, et al., J Am Soc Nephrol. 1999; 10: 62-68).
MMP-2/MMP-9 net activity in aortic extracts was evaluated by using a synthetic colorimetric substrate [Ac-Pro-Leu-Gly-(2-mercapto-4-methylpentanoyl)-Leu-Gly-Oet; Calbiochem, Cambridge, Mass.], according to the manufacturer's directions.

MMP-2 = assay: Zymography of U937 cell supernatants, MMP-2; format: cell-based, human
Protocol: Human pro-monocytic U937 cells were obtained from American Type Culture Collection (Manassas, Va.) and grown in RPMI medium supplemented with 10% FBS. U937 cells were plated in six-well plates at a density of 5×10^6 cells/ml. The cells were then stimulated with 10 ng/ml TNF-α, in the presence or absence of either increasing concentrations of PPS (10-100 μg/ml) or heparin (100 μg/ml), and incubated at 37° C. for 3 hours. Following stimulation, cells were placed in 0.1% BSA-serum-free medium for 16-18 hours. The media was then collected, centrifuged, and supernatants were stored at −80° C. for the assessment of MMP activity. The cell number was determined by direct cell counting.
as §1

[1] = test system: MCP-1, RANTES, CXCL-1 mRNA; assay: Real-time PCR of chemokine mRNA in renal cortex; format: in vivo, mouse; conditions: PPS treated 22 month-old diabetic mice; P<0.01 vs. DN
Protocol: Total RNA was isolated from renal cortex using a PureYield RNA Midiprep kit (Promega, Madison, Wis.). The preparation was free of DNA contamination and 500 ng of total RNA from each sample was reverse-transcribed as previously described (Zheng F, Striker G E, Esposito C, Lupia E, Striker L J. Kidney Int 1998, 54:1999-2007; Zheng F, et al., Am Pathol 2003, 162:1339-1348). The levels of MCP-1 (monocyte chemoattractant protein-1), CXCL1 (c-x-c motif ligand 1), MIP2 (macrophage inflammatory protein 2), RANTES (regulated on activation, normal T cell expressed and secreted), ICAM-1 ([…] adhesion molecule 1), GRP78 (glucose regulatory protein 78), CHOP, and IL-6 (interleukin 6) mRNA were determined by real-time polymerase chain reaction (PCR). The primers used for the measurement were:
mRNA levels were corrected by the levels of β-actin or GAPDH mRNA. The expression of TNFα mRNA in kidney was determined by both a real time and a regular PCR using the primer of forward, 5′-[…]-3′ (SEQ ID NO: 17), reverse, 5′-[…]-3′ (SEQ ID NO: 18). GAPDH and β-actin mRNA levels were measured in the same sample.

IκB = assay: TNFα stimulated IκB phosphorylation in proximal tubular cells, Western-blot; format: cell-based, mouse; conditions: proximal tubular cells treated with PPS (400 μg/ml, ½ hour) before TNFα 10 ng/ml
Protocol: The activation of NF-κB and mitogen activated protein kinases including p38, JNK (Jun N-terminal kinase), and ERK (extracellular signal regulated kinase) pathways play an essential role in proinflammatory actions of TNFα. Thus, it was examined whether PPS affected the phosphorylation of IκB, ERK, p38, and JNK by TNFα. Proximal tubular cells were allowed to grow to 70% confluency in […] petri-dish. Cell lysates were collected before or 15, 30, 60, and 120 minutes after TNFα treatment (10 ng/ml). Cells in some dishes were pre-incubated with PPS (400 μg/ml) for ½ hour before exposure to TNFα. The levels of phosphorylated IκB, ERK, p38, and JNK were determined by Western-blots. Briefly, equal amounts of protein samples (10-20 μg/lane) were loaded onto SDS-PAGE gels. After electrophoresis, proteins were transferred to nitrocellulose membranes and blotted with antibody against phosphorylated IκB, ERK, p38, or JNK (Cell signaling, Boston, Mass.). After the first analysis, the membranes were stripped to re-probe with antibody against total IκB, ERK, p38 or JNK, and ERK and finally with antibody against β-actin (Cell signaling, Boston, Mass.).

NF-κB = NF-κB DNA binding, gel mobility shift assay (EMSA); format: cell-based, mouse; conditions: proximal tubular cells, PPS 800 μg/ml for ½ hour before TNFα 10 ng/ml, nuclear protein after 1 hour
Protocol: Additionally, NF-κB DNA binding was examined by gel mobility shift assay (EMSA). Briefly, proximal tubular cells were pre-incubated with or without PPS (800 μg/ml) for ½ hour before the addition of TNFα (10 ng/ml). Nuclear protein was extracted from cells 1 hour after treatment. A NF-κB probe was prepared by annealing complementary single-stranded oligonucleotides with 5′-ACTG overhangs (MWG Biotechnologies, Inc.) and were labeled by filling in with [-^32P]dGTP and [-^32P]dCTP using Klenow enzyme. Labeled probes were purified with Nuctrap purification columns (Roche Applied Science). EMSAs were performed using 10^5 cpm of labeled probe and 10 μg of nuclear extracts/reaction. DNA binding complexes were separated by electrophoresis on a 5% polyacrylamide-Tris/glycine-EDTA gel, which was dried and exposed to X-ray film.

WHHL rabbits = conditions: rabbit, in vivo, po
Protocol: 3-month-old female WHHL rabbits, obtained from the Institute for Experimental Animals, Kobe University School of Medicine (Shiomi M, et al., Arterioscler Thromb 1994; 14: 931-937), were fed a standard diet supplemented with 0.5% cholesterol for 45 days. […] Twenty rabbits with established lesions were randomized into two groups, one (PPS group) receiving PPS (30 mg/kg BW daily) added to the drinking water, and the other (Control group) receiving tap water for the next 30 days. […] After 30 days, the rabbits were anesthetized with ketamine hydrochloride and xylazine (60 mg and 6 mg/kg BW, respectively), and exsanguinated. Five from each group were perfusion-fixed with 4% phosphate-buffered formaldehyde solution through the femoral vein.

[2] = U937 cells, dose-response experiments

Q: Which “activity of post-heparin hepatic lipase, PPS- versus water-treated” value (hepatic lipase) does the source give for pentosan polysulfate [PPS] here?
A: Its value is “no differences”.

Q: What about the “Net MMP-2/MMP-9 activity, reduction compared to water-treated animals” value (MMP-2/MMP-9) of the same substance?
A: The value was 27.74±4.32%.

Q: And the “MMP-2 activity, reduction by PPS treatment” value (MMP-2; U937 cells stimulated with 10 ng/ml TNF-α, 100 μg/ml PPS, P<0.05)?
A: Its value is 37.73%±12.17%.

Q: What about the “concentration at which the PPS effect on MMP activity was evident” value (MMP-2; [2]) of the same substance?
A: The value was 25 µg/mL.

Q: What about the “concentration at which the PPS effect on MMP activity was maximal” value (MMP-2; [2]) of the same substance?
A: Its value is 75 to 100 µg/mL.

Q: What about the “MMP-2 activity, decrease by PPS treatment” value (MMP-2; unstimulated U937 cells, 100 μg/ml PPS, figure data as percent of control, P<0.01) of the same substance?
A: Its value is 45.40%±9.68%.

Q: And the “mRNA levels of MCP-1, RANTES, and CXCL-1 in renal cortices” value [1]?
A: The value was “levels similar to 22 month-old non-diabetic”.

Q: And the “decrease in the levels of IκB phosphorylation” value (IκB)?
A: The value was 40-60%.

Q: And the “TNFα-induced increase in NF-κB DNA binding activity” value (NF-κB)?
A: Its value is “nearly completely blocked”.

Q: And the bleeding (WHHL rabbits)?
A: The bleeding was “not observed”.

Reference: patent publication US8871741B2, “Inhibition of TNF-α induced activation of NFKB by pentosan polysulfate” (Icahn School of Medicine at Mount Sinai, priority 2010, dated 2014)
